Where two headings read alike, the source gives them in different places.
Experiments:
Molm13 = conditions: cited from earlier work
FLT3-ITD [1] = target: T1, FLT3-ITD (Homo sapiens, UniProt P36888, ITD); experiment: FLT3-ITD kinase inhibition, ADP-Glo kinase assay; format: biochemical; conditions: read-out: %FLT3 inhibition FLT3-ITD
T1 sequence (P36888 564-993): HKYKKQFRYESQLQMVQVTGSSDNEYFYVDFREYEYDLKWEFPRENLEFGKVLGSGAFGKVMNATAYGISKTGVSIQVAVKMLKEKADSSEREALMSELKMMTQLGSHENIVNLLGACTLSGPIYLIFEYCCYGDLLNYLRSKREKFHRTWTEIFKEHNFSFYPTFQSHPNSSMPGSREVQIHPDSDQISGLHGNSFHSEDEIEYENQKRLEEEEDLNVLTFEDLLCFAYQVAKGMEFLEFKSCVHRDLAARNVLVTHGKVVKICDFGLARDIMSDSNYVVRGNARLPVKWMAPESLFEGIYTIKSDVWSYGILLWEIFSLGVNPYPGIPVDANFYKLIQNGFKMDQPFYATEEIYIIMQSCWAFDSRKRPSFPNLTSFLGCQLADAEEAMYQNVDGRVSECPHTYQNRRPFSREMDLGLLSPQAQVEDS

MV4–11 [2] = experiment: Antiproliferative activity, CellTiter-Blue; format: cell-based; conditions: for AML cell growth inhibition: SAR discussion of Table 1
FLT3-ITD [3] = target: T2, FLT3-ITD (Homo sapiens, UniProt P36888); experiment: FLT3-ITD kinase inhibition, ADP-Glo kinase assay; format: biochemical; conditions: SAR discussion of Table 1
T2 sequence (P36888 564-993): T1 sequence (P36888 564-993)

MV4–11 [4] = conditions: cited from earlier work
MV4–11 [5] = experiment: Cell cycle analysis; format: cell-based; conditions: MV4–11, 24 h
MKNK2 = MKNK2 (Homo sapiens, UniProt Q9HBH9); experiment: DiscoverX ScanEdge kinase profiling; format: binding; conditions: read-out: percent inhibition MKNK2
JAK2 = JAK2 (Homo sapiens, UniProt O60674); experiment: DiscoverX ScanEdge kinase profiling; format: binding; conditions: read-out: percent inhibition JAK2
FLT3 = target: T3, FLT3 (Homo sapiens, UniProt P36888); experiment: DiscoverX ScanEdge kinase profiling; format: binding; conditions: read-out: percent inhibition FLT3
T3 sequence (P36888 27-993): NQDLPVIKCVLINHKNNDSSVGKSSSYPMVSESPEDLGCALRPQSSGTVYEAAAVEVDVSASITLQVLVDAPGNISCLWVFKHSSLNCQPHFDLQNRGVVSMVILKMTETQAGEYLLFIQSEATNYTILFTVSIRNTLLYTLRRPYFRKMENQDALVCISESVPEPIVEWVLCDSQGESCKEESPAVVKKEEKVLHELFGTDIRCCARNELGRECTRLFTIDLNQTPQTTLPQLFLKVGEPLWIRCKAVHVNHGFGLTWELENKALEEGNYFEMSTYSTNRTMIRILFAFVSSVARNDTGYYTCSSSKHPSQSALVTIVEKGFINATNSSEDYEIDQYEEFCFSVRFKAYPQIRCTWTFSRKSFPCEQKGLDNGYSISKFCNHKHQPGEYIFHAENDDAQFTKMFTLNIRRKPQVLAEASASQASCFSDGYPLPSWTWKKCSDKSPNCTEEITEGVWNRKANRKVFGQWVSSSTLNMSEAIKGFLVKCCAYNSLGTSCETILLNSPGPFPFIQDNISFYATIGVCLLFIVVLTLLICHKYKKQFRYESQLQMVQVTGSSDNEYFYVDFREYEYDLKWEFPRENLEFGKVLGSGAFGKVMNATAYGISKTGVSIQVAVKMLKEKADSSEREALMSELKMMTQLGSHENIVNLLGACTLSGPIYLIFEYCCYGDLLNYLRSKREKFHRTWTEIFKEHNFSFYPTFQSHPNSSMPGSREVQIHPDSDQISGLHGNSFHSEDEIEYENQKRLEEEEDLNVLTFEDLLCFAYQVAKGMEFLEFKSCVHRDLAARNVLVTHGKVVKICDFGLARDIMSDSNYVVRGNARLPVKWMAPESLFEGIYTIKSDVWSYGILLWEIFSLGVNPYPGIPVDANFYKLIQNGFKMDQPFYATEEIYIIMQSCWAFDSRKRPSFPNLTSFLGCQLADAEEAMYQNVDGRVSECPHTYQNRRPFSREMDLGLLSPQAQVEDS

JAK3 = JAK3 (Homo sapiens, UniProt P52333); experiment: DiscoverX ScanEdge kinase profiling; format: binding; conditions: read-out: percent inhibition JAK3
[6] = tested on: Molm13-res (FLT3 (ITD, D835Y)); experiment: Antiproliferative activity, CellTiter-Blue; format: cell-based; conditions: 72 h
TOPK mRNA = experiment: Real-time PCR of TOPK mRNA in MV4–11 cells; format: cell-based; conditions: 24 h
phospho-STAT5 = experiment: Western blot of phospho-STAT5 in MV4–11 cells; format: cell-based
[7] = tested on: K562, NOMO-1, HL60 and MOLT4; experiment: Antiproliferative activity, non-FLT3-driven leukemia cell lines; format: cell-based; conditions: 72 h, read-out: IC50 range over non-FLT3-driven leukemia cell lines
Molm14 = experiment: Antiproliferative activity, CellTiter-Blue; format: cell-based
TOPK = experiment: Western blot of TOPK protein in MV4–11 cells; format: cell-based
c-Kit = conditions: read-out: IC50 c-Kit; cited from earlier work
ABL1-phosphorylated = ABL1-phosphorylated (Homo sapiens, UniProt P00519); conditions: read-out: Kd ABL1-phosphorylated; KdELECT; ref Zimmerman et al. [28]; cited from earlier work
ABL1-nonphosphorylated = ABL1-nonphosphorylated (Homo sapiens, UniProt P00519); conditions: read-out: Kd ABL1-nonphosphorylated; KdELECT; ref Zimmerman et al. [28]; cited from earlier work
FLT3 D835Y = conditions: read-out: IC50 FLT3 D835Y; cited from earlier work
[8] = Homo sapiens, MV4-11, 72 h, read-out: IC50 MV4–11, 72 h
[9] = read-out: IC50 Molm13-res, 72 h
[10] = Homo sapiens, MOLM-14, 72 h, read-out: IC50 Molm14, 72 h

Sequence of JAK3 (P52333 813-1124 limits assumed): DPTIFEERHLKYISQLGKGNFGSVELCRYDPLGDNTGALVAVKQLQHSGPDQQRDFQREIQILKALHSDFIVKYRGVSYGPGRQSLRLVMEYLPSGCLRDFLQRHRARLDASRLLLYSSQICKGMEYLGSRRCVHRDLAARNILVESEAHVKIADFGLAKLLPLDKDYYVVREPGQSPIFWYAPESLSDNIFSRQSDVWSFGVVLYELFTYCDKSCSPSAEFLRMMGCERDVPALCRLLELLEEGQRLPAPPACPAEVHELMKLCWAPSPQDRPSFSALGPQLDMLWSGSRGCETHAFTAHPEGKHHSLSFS
Sequence of JAK2 (O60674 840-1132 limits assumed): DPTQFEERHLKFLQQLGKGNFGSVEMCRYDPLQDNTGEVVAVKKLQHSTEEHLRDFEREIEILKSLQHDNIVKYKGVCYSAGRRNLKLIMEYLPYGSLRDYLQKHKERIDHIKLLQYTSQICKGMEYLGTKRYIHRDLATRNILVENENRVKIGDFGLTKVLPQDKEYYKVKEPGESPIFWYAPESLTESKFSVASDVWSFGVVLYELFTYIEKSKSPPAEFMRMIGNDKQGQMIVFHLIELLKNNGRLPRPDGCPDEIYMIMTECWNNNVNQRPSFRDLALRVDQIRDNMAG
Sequence of MKNK2 (Q9HBH9 whole entry): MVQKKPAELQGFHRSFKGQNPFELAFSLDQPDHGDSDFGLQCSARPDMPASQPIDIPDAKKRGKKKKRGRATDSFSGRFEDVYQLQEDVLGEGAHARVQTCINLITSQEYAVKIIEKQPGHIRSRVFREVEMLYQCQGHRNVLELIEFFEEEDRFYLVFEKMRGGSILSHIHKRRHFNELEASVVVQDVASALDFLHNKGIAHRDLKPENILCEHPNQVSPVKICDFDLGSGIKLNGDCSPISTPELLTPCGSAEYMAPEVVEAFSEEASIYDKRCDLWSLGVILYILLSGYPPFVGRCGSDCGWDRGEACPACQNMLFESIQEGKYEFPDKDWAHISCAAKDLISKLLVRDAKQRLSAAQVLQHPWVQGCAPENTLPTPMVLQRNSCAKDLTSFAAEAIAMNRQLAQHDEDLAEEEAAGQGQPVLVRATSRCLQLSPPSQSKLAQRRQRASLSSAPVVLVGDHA
Sequence of ABL1-nonphosphorylated (P00519 whole entry): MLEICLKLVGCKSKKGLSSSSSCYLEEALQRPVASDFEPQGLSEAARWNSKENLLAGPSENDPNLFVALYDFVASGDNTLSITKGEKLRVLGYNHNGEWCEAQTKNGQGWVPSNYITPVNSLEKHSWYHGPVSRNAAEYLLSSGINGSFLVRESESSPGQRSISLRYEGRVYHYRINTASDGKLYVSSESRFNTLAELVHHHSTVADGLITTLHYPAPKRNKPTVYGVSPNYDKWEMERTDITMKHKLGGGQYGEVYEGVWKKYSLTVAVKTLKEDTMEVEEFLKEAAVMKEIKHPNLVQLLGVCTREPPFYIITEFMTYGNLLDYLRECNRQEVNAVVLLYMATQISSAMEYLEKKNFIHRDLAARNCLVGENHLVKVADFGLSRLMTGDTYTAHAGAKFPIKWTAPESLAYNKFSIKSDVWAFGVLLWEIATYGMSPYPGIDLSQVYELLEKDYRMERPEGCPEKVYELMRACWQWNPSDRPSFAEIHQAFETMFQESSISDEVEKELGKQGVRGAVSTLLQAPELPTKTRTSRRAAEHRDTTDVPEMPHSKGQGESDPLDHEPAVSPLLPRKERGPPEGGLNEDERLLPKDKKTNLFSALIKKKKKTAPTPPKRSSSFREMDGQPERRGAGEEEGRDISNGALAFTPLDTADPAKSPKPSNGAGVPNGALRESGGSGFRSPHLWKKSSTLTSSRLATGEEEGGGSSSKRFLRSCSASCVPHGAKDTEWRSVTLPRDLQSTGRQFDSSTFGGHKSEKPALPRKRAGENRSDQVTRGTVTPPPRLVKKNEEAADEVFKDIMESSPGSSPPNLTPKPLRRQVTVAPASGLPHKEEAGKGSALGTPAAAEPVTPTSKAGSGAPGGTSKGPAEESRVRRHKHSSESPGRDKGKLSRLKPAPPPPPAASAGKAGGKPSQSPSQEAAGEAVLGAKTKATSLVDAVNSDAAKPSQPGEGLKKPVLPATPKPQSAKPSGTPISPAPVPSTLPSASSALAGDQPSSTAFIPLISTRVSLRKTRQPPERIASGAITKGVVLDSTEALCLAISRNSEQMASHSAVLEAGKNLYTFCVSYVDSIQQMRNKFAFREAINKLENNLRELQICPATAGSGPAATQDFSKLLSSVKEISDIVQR
Sequence of ABL1-phosphorylated (P00519 whole entry): as above

inhibition at 0.1 µM (FLT3-ITD [1]) | IC50 (MV4–11 [2]; [8]) | Compound | AML cell growth inhibition (MV4–11 [2]) | further results
 |  | C[C@H]1CC[C@H](n2c3cnccc3c3cnc(Nc4ccc5c(n4)CCN(C(=O)CO)C5)nc32)CC1 [AMG 925] |  | effect on cell cycle (Molm13): induce arrest in the G0/1 phase
6% | 1300 nM | c1cncc(-c2n[nH]cc2-c2nc3ccc4[nH]ncc4c3c3c2CCCC3)c1 [Compound 15] | inactive compounds | 
5% | > 5000 nM | FC(F)(F)c1cc(-c2nc3ccc4[nH]ncc4c3c3c2CCCC3)n[nH]1 [Compound 13] | inactive even at 1000 nM | 
8% | 898 nM | FC(F)(F)c1n[nH]cc1-c1nc2ccc3[nH]ccc3c2c2c1CCCC2 [Compound 19] | did not inhibit FLT3 enzymatic activity or AML cell growth | FLT3 enzymatic inhibition (FLT3-ITD [3]): did not inhibit FLT3 enzymatic activity
71% | 132 nM | NC1CCc2c(c(-c3c[nH]nc3C(F)(F)F)nc3ccc4[nH]ncc4c23)C1 (stereo not drawn) [Compound 7] | less active | 
 |  | Nc1ncc(-c2ccncc2)nc1Nc1ccc2[nH]ccc2c1 [AKN-028] |  | effect on cell cycle (MV4–11 [4]): induce arrest in the G0/1 phase
19% | 772 nM | c1cc(-c2n[nH]cc2-c2nc3ccc4[nH]ncc4c3c3c2CCCC3)cs1 [Compound 17] | inactive compounds | 
80% | 5 nM | FC(F)(F)c1n[nH]cc1-c1nc2ccc3[nH]ncc3c2c2c1CCCC2 [HSD1169] | potent inhibitors of AML proliferation | effect on cell cycle (MV4–11 [5]): dose-dependent increase in the percentage of cells in the G0/1 phase; inhibition at 0.5 µM (MKNK2): > 90%; inhibition at 0.5 µM (JAK2): > 90%; inhibition at 0.5 µM (FLT3): > 90%; inhibition at 0.5 µM (JAK3): > 90%; IC50 [6, 9]: 5 nM; IC50 ([6]; read-out: IC50 Molm13-res, listed as 4 (HSD1169)): 5.1 nM; IC50 (MV4–11 [2]; read-out: IC50 MV4–11, 72 h, listed as 4 (HSD1169)): 5.4 nM; TOPK mRNA level (TOPK mRNA): downregulation of TOPK mRNA; phosphorylation of STAT5 (western blot, words) (phospho-STAT5): inhibited the phosphorylation of STAT5; IC50 [7]: 620 to 1860 nM; IC50 (Molm14; [10]): 5 nM; IC50 (Molm14; read-out: IC50 Molm14, 72 h, listed as 4 (HSD1169)): 4.9 nM; TOPK protein level (western blot, words) (TOPK): reduction of TOPK protein in a dose-dependent manner
 |  | CO[C@@H]1[C@H](N(C)C(=O)c2ccccc2)C[C@H]2O[C@]1(C)n1c3ccccc3c3c4c(c5c6ccccc6n2c5c31)C(=O)NC4 [PKC412 (midostaurin), midostaurin] |  | effect on cell cycle (MV4–11 [4]): did not affect cell cycle pattern; effect on cell cycle (Molm13): did not affect cell cycle pattern
 |  | CCc1nc(C(N)=O)c(Nc2ccc(N3CCC(N4CCN(C)CC4)CC3)c(OC)c2)nc1NC1CCOCC1 [gilteritinib] |  | IC50 (c-Kit): 230 nM
54% | 61.5 nM | Cc1n[nH]cc1-c1nc2ccc3[nH]ncc3c2c2c1CCCC2 [Compound 9] | potent inhibitors of AML proliferation | IC50 [6, 9]: 86.7 nM; IC50 (Molm14; [10]): 64.1 nM
56% | 154 nM | c1[nH]nnc1-c1nc2ccc3[nH]ncc3c2c2c1CCCC2 [Compound 12] | not as active as HSD1169 | 
27% | 1390 nM | OCCn1cc(-c2nc3ccc4[nH]ncc4c3c3c2CCCC3)cn1 [Compound 20] | inactive compounds | 
26% | 1450 nM | c1ccc(-c2n[nH]cc2-c2nc3ccc4[nH]ncc4c3c3c2CCCC3)cc1 [Compound 14] |  | 
 |  | CC1(COc2ccc3c(c2)ncn3-c2ccc3cccc(N4CCC(N)CC4)c3n2)COC1 [Crenolanib, crenolanib] |  | Kd (ABL1-phosphorylated): 430 nM; Kd (ABL1-nonphosphorylated): 140 nM; IC50 (FLT3 D835Y): 6.9 nM

From publication PMC6367750 (Future Medicinal Chemistry, 2018)
